Reference: patent US4006144A, “10,11-Dihydro-dibenzo(b,f)thiepin derivatives” (Hoffmann-La Roche Inc., priority 1972, dated 1977)
Structures can show the parent of a compound that is named as a salt. Where two headings read alike, the source gives them in different places.

Columns and labels:
Type in all cases: in vivo
[1] = test system: mice; assay: Rotating rod test; details: for ED50: Mus musculus, po, read-out: ED50 (dose which reduces the holding time to 50%)
Procedure: In the rotating rod test, the ability of mice to achieve a coordinated, motoric performance is tested. After the peroral administration of the test substance, mice are placed on a horizontal, slowly rotating rod and the time until the mice fall off the rod is measured.

[2] = test system: homovanillic acid (HVA); assay: Determination of homovanillic acid (turnover of dopamine in the basal ganglia); details: rats; for Increase of HVA: 2 hours, untreated rats fixed at 100%
Procedure: Rats are injected with the derivative to be tested 2 hours before they are killed.
Homovanillic acid is extracted from the supernatant of the brain homogenate into butyl acetate and later into an aqueous solution and oxidised with potassium ferricyanide to a fluorescent dimer. From the increased concentration of homovanillic acid (HVA) it can be concluded that the derivative under investigation acts like chlorpromazine, i.e. it increases the turnover of dopamine in the basal ganglia. The homovanillic acid titre in untreated rats is arbitrarily fixed at 100%.

[3] = test system: rats; assay: Pole climbing test; details: for Quotient ED10 (Blocking of the unconditioned reaction)/ED50 (Blocking of the conditioned reaction): higher = greater selectivity of neuroleptic action
Procedure: This test gives information about behaviour reactions of rats. Rats are trained to avoid, by climbing up a vertical pole in the test chamber, an electrical impulse (unconditioned impulse) released via the wire-latticed floor some seconds after an acoustic signal (conditioned impulse).
The blocking of the conditioned reaction is determined by the parameter ED50 (mg/kg p.o.); the blocking of the unconditioned reaction is determined by the parameter ED10 (mg/kg p.o.).
The parameter ED50 (blocking of the conditioned reaction) gives a measure of the neuroleptic activity strength of the test substance. The quotient ED10 (blocking of the unconditioned reaction)/ED50 (blocking of the conditioned reaction) gives a measure of the quality of action of the test substance, in that with increasing quotient a greater selectivity of the neuroleptic action (slighter neurotoxic side-effects) is present.

[4] = Cataleptic action in rats (homolateral extremities crossed position); details: rat, in vivo, ip
Procedure: (§1) The following products were investigated:
(§2) The amimals are considered to be cataleptic when the homolateral extremities remain for at least 10 seconds in the crossed position. The number of cataleptic animals is noted every 30 minutes for 6 hours.

[5] = test system: rats; assay: as above; details: rats, intraperitoneal
Procedure: as §1, §2

Compound | ED50 [1] [mg/kg] | Increase of HVA ([2]; 20 mg/kg p.o.) [%] | Quotient ED10 (Blocking of the unconditioned reaction)/ED50 (Blocking of the conditioned reaction) ([3]; p.o.) | TD50 at 6 h ([4]; rats, intraperitoneal, noted every 30 minutes for 6 hours, read-out: ED50 (dose at which 50% of the animals show catalepsy)) [mg/kg] | cataleptic action in comparison to chlorpromazine (in words) [5] | Increase of HVA ([2]; 50 mg/kg p.o.) [%] | activity in HVA test compared with chlorpromazine (in words) [2] | TD50 at 6 h [4] [mg/kg] | ED50 ([1]; mice, peroral) [mg/kg] | action in rotating rod test (in words) ([1]; mice, peroral) | ED50 ([3]; Rattus norvegicus, po, read-out: ED50 (Blocking of the conditioned reaction)) [mg/kg] | neuroleptic action and quality (selectivity) compared with chlorpromazine (in words) ([3]; p.o.)
CN(C)CCCN1c2ccccc2Sc2ccc(Cl)cc21 [Chlorpromazine, reference compound] | 5 | 321 | 3.5 |  |  |  |  |  |  |  |  | 
Cc1ccc2c(c1)CC(N1CCN(CCN3CCOC3=O)CC1)c1ccccc1S2.O=C(O)/C=C\C(=O)O (stereo not shown) [Product B, 3-[2-[4-(10,11-dihydro-2-methyl-dibenzo[b,f]thiepin-10-yl)-1-piperazinyl]-ethyl]-2-oxazolidinone maleate] |  |  |  | 70 | no cataleptic action or only a slight cataleptic action | 255 | almost equalizes that of chloropromazine |  |  |  |  | 
O=C1OCCN1CCN1CCN(C2Cc3cc(Cl)ccc3Sc3ccccc32)CC1 (stereo not shown) [Product A, 3-[2-[4-(2-chloro-10,11-dihydro-dibenzo[b,f]thiepin-10-yl)-1-piperazinyl]-ethyl]-2-oxozolidinone maleate] |  |  | 4.2 |  | no cataleptic action or only a slight cataleptic action | 340 | almost equalizes that of chloropromazine | > 100 | 7.9 | strong action | 10 | strong neuroleptic action but also a quality (selectivity) of the neuroleptic action, both of which somewhat exceed that of chlorpromazine
